These molecules were tested against T1, recombinant human 5-HT5A receptor (Homo sapiens, UniProt P47898) (assay: [3H]LSD radioligand binding assay). Conditions: [3H]LSD approx. 1 nM; membranes from HEK-EBNA cells transiently expressing 5-HT5A; Ki from IC50 by Cheng-Prussoff.
T1 construct: expressed in transfected cells; host or cells: Human Embryonic Kidney-EBNA (HEK-EBNA) cells, transient cDNA expression; membranes
Method: A [^3H]LSD radioligand binding assay was used to determine the affinity of the compounds for the recombinant human 5-HT5A receptor, in membranes from transiently (cDNA) expressed 5-HT5A receptors in Human Embryonic Kidney-EBNA (HEK-EBNA) cells. Assay buffer consisted of Tris (50 mM) buffer containing 1 mM EGTA, 10 mM MgCl2 (pH 7.4) and 10 μM pargyline. The binding assay was carried out in 96-well-plates in the presence of [^3H]LSD (approximately 1 nM), approximately 2 μg/well of membrane protein, and 0.5 mg of Ysi-poly-l-lysine SPA beads in a final volume of 200 μl of buffer. Non-specific binding was defined using methiothepin 2 μM. Compounds were tested at 10 concentrations. All assays were conducted in duplicate and repeated at least two times. Assay plates were incubated for 120 min at room temperature before centrifugation. Bound ligand was determined using a Packard Topcount scintillation counter. IC50 values were calculated using a non-linear curve fitting program and Ki values calculated using the Cheng-Prussoff equation.

T1 sequence (P47898 whole entry): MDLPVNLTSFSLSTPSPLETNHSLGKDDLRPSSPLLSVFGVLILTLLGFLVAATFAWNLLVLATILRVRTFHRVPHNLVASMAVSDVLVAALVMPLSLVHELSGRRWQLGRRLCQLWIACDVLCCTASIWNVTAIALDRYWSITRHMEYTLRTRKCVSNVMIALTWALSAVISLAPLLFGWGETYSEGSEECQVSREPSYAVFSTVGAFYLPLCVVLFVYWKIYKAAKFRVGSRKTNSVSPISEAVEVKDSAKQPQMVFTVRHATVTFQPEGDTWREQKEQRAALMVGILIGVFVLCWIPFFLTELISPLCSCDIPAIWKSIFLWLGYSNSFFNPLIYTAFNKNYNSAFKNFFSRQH

Row | Compound | Ki [nM]
1 | Cc1cc2cccc(Nc3ccc4c(NCc5cccc6[nH]ccc56)cccc4n3)c2o1 [Example 111, N5-(1H-Indol-4-ylmethyl)-N2-(2-methyl-benzofuran-7-yl)-quinoline-2,5-diamine] | 10.1
2 | Cc1cc2cccc(Nc3ccc4c(NCc5cc(F)cc(F)c5)cccc4n3)c2o1 [Example 132, N5-(3,5-Difluoro-benzyl)-N2-(2-methyl-benzofuran-7-yl)-quinoline-2,5-diamine] | 15
3 | CC1(C)Cc2cccc(Nc3ccc4c(NCc5cccc6[nH]ccc56)cccc4n3)c2O1 [Example 147, N2-(2,2-Dimethyl-2,3-dihydro-benzofuran-7-yl)-N5-(1H-indol-4-ylmethyl)-quinoline-2,5-diamine] | 4.31
4 | COc1ccccc1CNc1ccc2c(CCc3cccnc3)cccc2n1 [Example 16, (2-Methoxy-benzyl)-[5-(2-pyridin-3-yl-ethyl)-quinolin-2-yl]-amine] | 32.6
5 | CC1(C)Cc2cccc(Nc3ccc4c(NS(=O)(=O)Nc5ccc(F)cc5)cccc4n3)c2O1 [Example 156, N-{2-[(2,2-dimethyl-2,3-dihydro-1-benzofuran-7-yl)amino]quinolin-5-yl}-N′-(4-fluorophenyl)sulfamide] | 45.1
6 | COc1ccccc1CNc1ccc2c(OCC[S+]([O-])c3ccccc3)cccc2n1 (stereo not shown) [Example 83, [5-(2-Benzenesulfinyl-ethoxy)-quinolin-2-yl]-(2-methoxy-benzyl)-amine] | 95.6
7 | Cc1ccc(CNc2ccc3c(Nc4ccc(F)cc4)cccc3n2)o1 [Example 45, N5-(4-Fluoro-phenyl)-N2-(5-methyl-furan-2-ylmethyl)-quinoline-2,5-diamine] | 13.2
8 | Cc1ccc(CNc2ccc3c(NS(=O)(=O)c4ccccc4)cccc3n2)o1 [Example 39, N-{2-[(5-Methyl-furan-2-ylmethyl)-amino]-quinolin-5-yl}-benzenesulfonamide] | 28.7
9 | COc1ccccc1CNc1ccc2c(NCc3ccncc3)cccc2n1 [Example 9, N2-(2-Methoxy-benzyl)-N5-pyridin-4-ylmethyl-quinoline-2,5-diamine] | 34.5
10 | Cc1ccc(CNc2ccc3c(NCc4ccccc4N4CCN(C)CC4)cccc3n2)o1 [Example 105, N2-(5-Methyl-furan-2-ylmethyl)-N5-[2-(4-methyl-piperazin-1-yl)-benzyl]-quinoline-2,5-diamine] | 24.1
11 | Cc1cc2cccc(Nc3ccc4c(Nc5cccc6[nH]ccc56)cccc4n3)c2o1 [Example 113, N5-(1H-Indol-4-yl)-N2-(2-methyl-benzofuran-7-yl)-quinoline-2,5-diamine] | 20.6
12 | COc1cccc(CNc2cccc3nc(NCc4ccccc4OC)ccc23)c1 [Example 5, N5-(3-Methoxy-benzyl)-N2-(2-methoxy-benzyl)-quinoline-2,5-diamine] | 9.7
13 | Cc1cc2cccc(Nc3ccc4c(NS(=O)(=O)c5cc(F)cc(F)c5)cccc4n3)c2o1 [Example 89, 3,5-Difluoro-N-[2-(2-methyl-benzofuran-7-ylamino)-quinolin-5-yl]-benzenesulfonamide] | 50.6
14 | FC(F)(F)Oc1ccccc1CNc1ccc2c(NCc3cccc4[nH]ccc34)cccc2n1 [Example 116, N5-(1H-Indol-4-ylmethyl)-N2-(2-trifluoromethoxy-benzyl)-quinoline-2,5-diamine] | 32.9
15 | COc1ccccc1CNc1ccc2c(NCc3[nH]cnc3C)cccc2n1 [Example 96, N2-(2-Methoxy-benzyl)-N5-(5-methyl-3H-imidazol-4-ylmethyl)-quinoline-2,5-diamine] | 19.4
16 | CC1(C)Cc2cccc(Nc3ccc4c(NCc5cccnc5)cccc4n3)c2O1 [Example 163, N2-(2,2-Dimethyl-2,3-dihydro-benzofuran-7-yl)-N5-pyridin-3-ylmethyl-quinoline-2,5-diamine] | 9.92
17 | Cc1ccc(CNc2ccc3c(NS(=O)(=O)c4ccc(F)cc4)cccc3n2)o1 [Example 42, N-{2-[(5-Methyl-furan-2-ylmethyl)-amino]-quinolin-5-yl}-4-fluorobenzenesulfonamide] | 12.5
18 | Cc1ccc(CNc2ccc3c(NCc4ccc5[nH]cnc5c4)cccc3n2)o1 [Example 107, N5-(1H-Benzoimidazol-5-ylmethyl)-N2-(5-methyl-furan-2-ylmethyl)-quinoline-2,5-diamine] | 3.92
19 | CC(Nc1cccc2nc(Nc3cccc4c3OC(C)(C)C4)ccc12)c1cccnc1 (racemic) [Example 162, rac-N2-(2,2-Dimethyl-2,3-dihydro-benzofuran-7-yl)-N5-(1-pyridin-3-yl-ethyl)-quinoline-2,5-diamine] | 7.15
20 | COc1ccccc1CNc1ccc2c(NCc3cccnc3)cccc2n1 [Example 1, N2-(2-Methoxy-benzyl)-N5-pyridin-3-ylmethyl-quinoline-2,5-diamine] | 8.65
21 | Cc1ccc(CNc2ccc3c(NS(=O)(=O)c4cccc(F)c4)cccc3n2)o1 [Example 73, 3-Fluoro-N-{2-[(5-methyl-furan-2-ylmethyl)-amino]-quinolin-5-yl}-benzenesulfonamide] | 21.4
22 | Cc1ccc(CNc2ccc3c(CNc4cccnc4)cccc3n2)o1 [Example 21, (5-Methyl-furan-2-ylmethyl)-[5-(pyridin-3-ylaminomethyl)-quinolin-2-yl]-amine] | 35.8
23 | COc1ccccc1CNc1cccc2nc(NCc3ccc(C)o3)ccc12 [Example 13, N5-(2-Methoxy-benzyl)-N2-(5-methyl-furan-2-ylmethyl)-quinoline-2,5-diamine] | 15.3
24 | Cc1ccc(CNc2ccc3c(Nc4cccc5[nH]ccc45)cccc3n2)o1 [Example 94, N5-(1H-Indol-4-yl)-N2-(5-methyl-furan-2-ylmethyl)-quinoline-2,5-diamine] | 10.7
25 | COc1ccccc1CNc1ccc2c(C(=O)c3ccc(F)cc3)cccc2n1 [Example 137, (4-Fluoro-phenyl)-[2-(2-methoxy-benzylamino)-quinolin-5-yl]-methanone] | 50.9
26 | Cc1ccc(CNc2ccc3c(NS(=O)(=O)c4ccc(Cl)nc4)cccc3n2)o1 [Example 59, 6-Chloro-pyridine-3-sulfonic acid {2-[(5-methyl-furan-2-ylmethyl)-amino]-quinolin-5-yl}-amide] | 19.9

The remaining molecules from weak to strong by Ki, led by results:

Row | Ki [nM] | Compound
27 | 84.6 | COc1cccc(OC)c1CNc1ccc2c(NCc3cccnc3)cccc2n1 [Example 99, N2-(2,6-Dimethoxy-benzyl)-N5-pyridin-3-ylmethyl-quinoline-2,5-diamine]
28 | 49.4 | COCCOc1cccc(CNc2cccc3nc(NCc4ccc(C)o4)ccc23)c1 [Example 28, N5-[3-(2-Methoxy-ethoxy)-benzyl]-N2-(5-methyl-furan-2-ylmethyl)-quinoline-2,5-diamine]
29 | 33.9 | CSc1ccccc1CNc1ccc2c(NS(=O)(=O)c3ccc(F)cc3)cccc2n1 [Example 82, 4-Fluoro-N-[2-(2-methylsulfanyl-benzylamino)-quinolin-5-yl]-benzenesulfonamide]
30 | 32.4 | FC(F)(F)Oc1ccccc1CNc1ccc2c(NCc3ccc4[nH]cnc4c3)cccc2n1 [Example 117, N5-(1H-Benzoimidazol-5-ylmethyl)-N2-(2-trifluoromethoxy-benzyl)-quinoline-2,5-diamine]
31 | 31.4 | Cc1ccc(CNc2ccc3c(Nc4ccc(Cl)nc4)cccc3n2)o1 [Example 57, N5-(6-Chloro-pyridin-3-yl)-N2-(5-methyl-furan-2-ylmethyl)-quinoline-2,5-diamine]
32 | 31 | COc1ccccc1CNc1ccc2c(NCc3cnc(C)[nH]3)cccc2n1 [Example 97, N2-(2-Methoxy-benzyl)-N5-(2-methyl-3H-imidazol-4-ylmethyl)-quinoline-2,5-diamine]
33 | 21 | Cc1ccc(CNc2ccc3c(NCc4ccccn4)cccc3n2)o1 [Example 26, N2-(5-Methyl-furan-2-ylmethyl)-N5-pyridin-2-ylmethyl-quinoline-2,5-diamine]
34 | 18.4 | COc1ccccc1CNc1ccc2c(CCc3cccc(CO)c3)cccc2n1 [Example 23, (3-{2-[2-(2-Methoxy-benzylamino)-quinolin-5-yl]-ethyl}-phenyl)-methanol]
35 | 17.4 | Cc1cc2cccc(Nc3ccc4c(NCc5cnc[nH]5)cccc4n3)c2o1 [Example 131, N5-(3H-Imidazol-4-ylmethyl)-N2-(2-methyl-benzofuran-7-yl)-quinoline-2,5-diamine]
36 | 16.7 | Cc1ccc(CNc2ccc3c(NS(=O)(=O)c4cc(F)cc(F)c4)cccc3n2)s1 [Example 85, 3,5-Difluoro-N-{2-[(5-methyl-thiophen-2-ylmethyl)-amino]-quinolin-5-yl}-benzenesulfonamide]
37 | 16 | Cc1cc2cccc(Nc3ccc4c(NCc5cccnc5)cccc4n3)c2o1 [Example 129, N2-(2-Methyl-benzofuran-7-yl)-N5-pyridin-3-ylmethyl-quinoline-2,5-diamine]
38 | 15.7 | Cc1ccc(CNc2ccc3c(NCc4c[nH]cn4)cccc3n2)o1 [Example 87, N5-(1H-Imidazol-4-ylmethyl)-N2-(5-methyl-furan-2-ylmethyl)-quinoline-2,5-diamine]
39 | 6.29 | Cc1cc2cccc(Nc3ccc4c(NCc5ccc6[nH]cnc6c5)cccc4n3)c2o1 [Example 124, N5-(1H-Benzoimidazol-5-ylmethyl)-N2-(2-methyl-benzofuran-7-yl)-quinoline-2,5-diamine]
40 | 5.25 | Cc1ccc(CNc2ccc3c(NCc4cccc5[nH]ccc45)cccc3n2)o1 [Example 91, N5-(1H-Indol-4-ylmethyl)-N2-(5-methyl-furan-2-ylmethyl)-quinoline-2,5-diamine]

Source: patent US7825253B2, “2-aminoquinoline derivatives” (Hoffmann-La Roche Inc., priority 2006, dated 2010)
